Molecules are shown by their SMILES.

Common to all, as to type: in vivo
Experiment [1] deals with wheat (Triticum aestivum). The experiment is described as follows: Test A postemergence. The following applies: Triticum aestivum, post-emergence, 240 h, 125 g ai/ha, postemergence; visual injury after approximately 10 d; 0 to 100 scale (0 no effect, 100 complete control); read-out: Plant response rating, Wheat. In a few lines:
(§1)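 Greenhouse, ~10 d after spray; visual injury vs untreated controls, 0 = no effect, 100 = complete control. Preemergence: directed soil spray over planted seeds. Postemergence: plants 2–10 cm, 1–2 leaf stage. Loam/sand blend. Compound in non-phytotoxic solvent with surfactant.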

Experiment [2] deals with pigweed (Amaranthus retroflexus). The experiment in a line: Test A postemergence. The following applies: Amaranthus retroflexus, post-emergence, 240 h, 125 g ai/ha, postemergence; visual injury after approximately 10 d; 0 to 100 scale (0 no effect, 100 complete control); read-out: Plant response rating, Pigweed. A digest of the protocol:
as §1

The subject of experiment [3] is Kochia (Kochia scoparia). The experiment is described as follows: Test A postemergence. The following applies: Bassia scoparia, post-emergence, 240 h, 125 g ai/ha, postemergence; visual injury after approximately 10 d; 0 to 100 scale (0 no effect, 100 complete control); read-out: Plant response rating, Kochia. In a few lines: as §1
In experiment [4] the test system is Galium (catchweed bedstraw, Galium aparine). The experiment in a line: Test A postemergence. The following applies: Galium, post-emergence, 240 h, 125 g ai/ha, postemergence; visual injury after approximately 10 d; 0 to 100 scale (0 no effect, 100 complete control); read-out: Plant response rating, Galium. In a few lines: as §1
For experiment [5], the system named is giant foxtail (Setaria faberii). The experiment is described as follows: Test A postemergence. The following applies: Setaria faberi, post-emergence, 240 h, 125 g ai/ha, postemergence; visual injury after approximately 10 d; 0 to 100 scale (0 no effect, 100 complete control); read-out: Plant response rating, Foxtail, Giant. In a few lines:
as §1

For experiment [6], the system named is ryegrass, Italian (Italian ryegrass, Lolium multiflorum). The experiment is described as follows: Test A preemergence. The following applies: Lolium multiflorum, pre-emergence, 240 h, preemergence, read-out: Plant response rating, Ryegrass, Italian. A digest of the protocol:
as §1

The test system of experiment [7] is pigweed (Amaranthus retroflexus). The experiment is described as follows: Test A preemergence. The following applies: Amaranthus retroflexus, pre-emergence, 240 h, preemergence, read-out: Plant response rating, Pigweed.
Experiment [8] has as its system Kochia (Kochia scoparia). The experiment is described as follows: Test A preemergence. The following applies: Bassia scoparia, pre-emergence, 240 h, preemergence, read-out: Plant response rating, Kochia. In a few lines:
as §1

Experiment [9] relates to ragweed (common ragweed, Ambrosia elatior). The experiment is described as follows: Test A preemergence. The following applies: Ambrosia artemisiifolia, pre-emergence, 240 h, preemergence, read-out: Plant response rating, Ragweed. A digest of the protocol:
as §1

Experiment [10] has as its system barnyardgrass (Echinochloa crus-galli). The experiment in a line: Test A preemergence. The following applies: Echinochloa crus-galli, pre-emergence, 240 h, preemergence, read-out: Plant response rating, Barnyardgrass. In a few lines:
as §1

The subject of experiment [11] is giant foxtail (Setaria faberii). The experiment is described as follows: Test A preemergence. The following applies: Setaria faberi, pre-emergence, 240 h, preemergence, read-out: Plant response rating, Foxtail, Giant. A digest of the protocol:
as §1

Another experiment has as its system rice (Oryra sativa). The experiment is described as follows: Test B flooded paddy test. The following applies: Oryza sativa, Flood, 250 g ai/ha; scale of 0 to 100 where 0 is no effect and 100 is complete control; read-out: Rice plant response rating. In a few lines:
(§2)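 Greenhouse paddy pots with 2-leaf stage plants received compound by direct addition to floodwater 3 cm deep, kept at that level. Scored visually at 13–15 d versus controls (0 no effect; 100 complete control).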

Experiment [12] deals with barnyardgrass (Echinochloa crus-galli). The experiment is described as follows: Test B flooded paddy test. The following applies: Echinochloa crus-galli, Flood, 250 g ai/ha; scale of 0 to 100 where 0 is no effect and 100 is complete control; read-out: Barnyardgrass plant response rating. A digest of the protocol:
as §2

In experiment [13] the test system is ducksalad (Heteranthera limosa). The experiment in a line: Test B flooded paddy test. The following applies: Heteranthera limosa, Flood, 250 g ai/ha; scale of 0 to 100 where 0 is no effect and 100 is complete control; read-out: Ducksalad plant response rating. In a few lines:
as §2

The subject of experiment [14] is sedge, umbrella (small-flower umbrella sedge, Cyperus difformis). The experiment is described as follows: Test B flooded paddy test. The following applies: Cyperus difformis, Flood, 250 g ai/ha; scale of 0 to 100 where 0 is no effect and 100 is complete control; read-out: Sedge, Umbrella plant response rating. In a few lines:
as §2

Where [15] appears, read: 125 g ai/ha, visual rating after approx. 10 d, 0 to 100 scale where 0 is no effect and 100 is complete control.
The mark [16] stands for this setting: 500 g ai/ha, 0 to 100 scale, 0 = no effect, 100 = complete control.

With `CN1C[C@H](c2cc(F)c(F)c(F)c2)[C@@H](C(=O)Nc2ccc(F)c(F)c2F)C1=O` [Compound 757], in [1], the plant injury at 125 g/ha amounted to 60%. Besides, the pest or weed control at 125 g/ha was 20% in experiment [2]; 20% in the experiment on Kochia (Kochia scoparia) [3]; 50% in [4]; 90% in experiment [5]; 30% in experiment [6] (setting [15]); 30% in experiment [7] (setting [15]). The pest or weed control at 125 g/ha in the experiment on Kochia (Kochia scoparia) [8] (setting [15]) amounted to 70%; in [9] (setting [15]), 20%; in experiment [10] (setting [15]) it was 90%; in experiment [11] (setting [15]), 90%. Besides, the pest or weed control at 500 g/ha in experiment [6] (setting [16]) is 60%; in experiment [7] (setting [16]), 70%; in the experiment with Kochia (Kochia scoparia) [8] (setting [16]), 70%; in [9] (setting [16]), 90%; in [10] (setting [16]), 90%; in [11] (setting [16]), 90%. The pest or weed control at 250 g/ha with rice (Oryra sativa) stood at 80%; in [12], 75%; in [13], 100%; in experiment [14], 0%.

These data come from patent publication US12077503B2, “Substituted cyclic amides and their use as herbicides” (FMC CORPORATION, priority 2015, dated 2024).
